# Measured values: patent publication US20040053913A1, “Process for preparing 6-alkylidene penem derivatives” (priority 2002, published 2004)
# Where a name gives a salt, the structure may show the parent alone.
# How the values were obtained:
# [1] = target: class A β-lactamase Imi-1 from Enterobacter cloacae (Enterobacter cloacae, UniProt Q46991); test: β-Lactamase inhibition, spectrophotometric nitrocefin hydrolysis assay, Imi-1; format: biochemical; settings: enzyme 7.1 nM; 10 minutes preincubation at 25° C.; nitrocefin 50 μg/ml; 50 mM PO4, pH 7.0
# Chain of class A β-lactamase Imi-1 from Enterobacter cloacae (Q46991 entry or part of it): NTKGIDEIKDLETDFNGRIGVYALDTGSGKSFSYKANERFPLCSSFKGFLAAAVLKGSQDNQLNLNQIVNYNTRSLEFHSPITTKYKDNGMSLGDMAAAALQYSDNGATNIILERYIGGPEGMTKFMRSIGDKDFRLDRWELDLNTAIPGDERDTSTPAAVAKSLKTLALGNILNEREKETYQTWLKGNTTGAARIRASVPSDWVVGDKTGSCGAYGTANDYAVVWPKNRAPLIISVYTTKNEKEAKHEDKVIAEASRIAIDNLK
# Method: (§1) IC50 Determination for the Penem Inhibitor
# (§2) β-Lactamase inhibitory activity of the penem inhibitors was determined spectrophotometrically as described by Bush et al., [Bush, K., Macalintal, C., Rasmussen, B. A., Lee, V. and Yang, Y. Antimicrobial Agents and Chemotherapy 1993, 37, 851]. Homogeneously purified class A β-lactamases TEM-1 from E. coli and Imi-1 from Enterobacter cloacae, class B enzyme CcrA from Bacteroides fragilis and class C enzyme AmpC from Enterobacter cloaca were employed in the assay. The enzyme concentrations for TEM-1, Imi-1, CcrA and AmpC were 4.3, 7.1, 1.2 and 2.1 nM, respectively. A wide range of inhibitor concentrations were prepared in 50 mM PO4, pH 7.0 to include the possible IC50 values. The substrate used to initiate the enzyme reaction was nitrocefin at 50 μg/ml in the same buffer as the inhibitor. Initially the enzyme and inhibitor (20 μl each) were preincubated for 10 minutes at 25° C. prior to the addition of 160 μl volume of nitrocefin. Initial rates of hydrolysis were monitored for 5 minutes at 495 nm using a Molecular Devices Spectra Max 250 with kinetic protocol of SoftMax Program. Readings from the Spectra Max 250 were exported and transferred to Microsoft Excel. The percent of inhibition of each inhibitor concentration was calculated based on the control enzyme activity. The inhibitor concentration that caused a 50% reduction in the enzymatic activity (IC50) was determined graphically.
# [2] = target: class B enzyme CcrA from Bacteroides fragilis (Bacteroides fragilis, UniProt P25910); test: β-Lactamase inhibition, spectrophotometric nitrocefin hydrolysis assay, CcrA; format: biochemical; settings: enzyme 1.2 nM; 10 minutes preincubation at 25° C.; nitrocefin 50 μg/ml; 50 mM PO4, pH 7.0; read-out: IC50 (nM) Ccr-A
# Chain of class B enzyme CcrA from Bacteroides fragilis (P25910 19-249): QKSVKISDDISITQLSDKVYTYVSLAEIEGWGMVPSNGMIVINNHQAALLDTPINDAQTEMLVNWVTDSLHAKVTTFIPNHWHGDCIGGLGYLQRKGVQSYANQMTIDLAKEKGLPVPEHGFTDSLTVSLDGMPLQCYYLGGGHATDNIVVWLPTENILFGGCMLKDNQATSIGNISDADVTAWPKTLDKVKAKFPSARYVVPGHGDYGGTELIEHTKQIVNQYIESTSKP
# Method: as §1, §2
# [3] = target: class A β-lactamases TEM-1 from E. coli (Escherichia coli, UniProt P62593); test: β-Lactamase inhibition, spectrophotometric nitrocefin hydrolysis assay, TEM-1; format: biochemical; settings: enzyme 4.3 nM; 10 minutes preincubation at 25° C.; nitrocefin 50 μg/ml; 50 mM PO4, pH 7.0
# Chain of class A β-lactamases TEM-1 from E. coli (P62593 24-286 limits assumed): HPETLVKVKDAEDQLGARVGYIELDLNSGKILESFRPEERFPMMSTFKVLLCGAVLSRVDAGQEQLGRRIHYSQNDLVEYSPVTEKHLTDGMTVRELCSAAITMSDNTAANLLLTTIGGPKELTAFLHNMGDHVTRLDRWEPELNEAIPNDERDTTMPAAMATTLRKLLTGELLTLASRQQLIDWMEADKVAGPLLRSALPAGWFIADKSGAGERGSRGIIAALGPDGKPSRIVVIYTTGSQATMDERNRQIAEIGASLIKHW
# Method: as §1, §2
# [4] = target: class C enzyme AmpC from Enterobacter cloaca (Enterobacter cloacae, UniProt P05364); test: β-Lactamase inhibition, spectrophotometric nitrocefin hydrolysis assay, AmpC; format: biochemical; settings: enzyme 2.1 nM; 10 minutes preincubation at 25° C.; nitrocefin 50 μg/ml; 50 mM PO4, pH 7.0; read-out: IC50 (nM) Amp-C
# Chain of class C enzyme AmpC from Enterobacter cloaca (P05364 21-381): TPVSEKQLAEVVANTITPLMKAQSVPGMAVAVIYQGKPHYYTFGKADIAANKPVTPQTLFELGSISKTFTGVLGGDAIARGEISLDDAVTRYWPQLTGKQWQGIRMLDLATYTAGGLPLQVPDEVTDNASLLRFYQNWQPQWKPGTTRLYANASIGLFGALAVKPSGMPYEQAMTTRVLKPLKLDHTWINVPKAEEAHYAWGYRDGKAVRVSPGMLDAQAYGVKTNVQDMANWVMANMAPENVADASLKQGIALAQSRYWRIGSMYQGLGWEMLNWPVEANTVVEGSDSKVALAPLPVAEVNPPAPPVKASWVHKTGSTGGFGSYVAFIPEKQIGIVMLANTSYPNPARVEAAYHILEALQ
# Method: as §1, §2
# [5] = Comparative thermal stability in a solid state, residual ratio checked by HPLC; format: physicochemical; settings: for Residual Ratio (%): Temp. 40° C. in a solid state, HPLC
# From the text: One important aspect of the present invention relates to the use of stable bromopenem intermediate 16. The stability of the intermediate is relevant to the aldol condensation step where the decomposition is minimized [as well as to the shelf life stability]. In this invention the key intermediate 16, where R=para-Nitrobenzyl group is a stable and a crystalline intermediate. […] (Table 1) This remarkable stability of intermediate 16 enhances the shelf-life time of the compound as well as the scale-up feasibility. As mentioned above, protection of carboxyl group with para-Nitrobenzyl group reduces the number of steps in the present process of preparing the final compound of structure I. The crystalline nature of the intermediate was established by X-ray diffraction studies.
# Column: Inertsil SIL 100-5 4.6×150 mm (GL Science Inc.)
# Mobile phase; Ethylacetae: n-hexane (10:35 vv)
# Wave length: […]; Flow rate: 1.0 ml/min @ Room temperature.
Molecule,IC50 [1],IC50 [2],IC50 [3],IC50 [4],Residual Ratio (%) ([5]; Day 0),Residual Ratio (%) ([5]; Day 1),Residual Ratio (%) ([5]; Day 2),Residual Ratio (%) ([5]; Day 4),Residual Ratio (%) ([5]; Day 7),Residual Ratio (%) ([5]; Day 14),comparative thermal stability (in words) ([5]; intermediate 16 versus intermediate Q)
"O=C(O)C1=CS[C@@H]2/C(=C\c3c[nH]c(Cc4ccccc4)n3)C(=O)N12 [Example 3, (5R), (6Z)-6-(2-Benzyl-1H-imidazol-4-ylmethylene)-7-oxo-4-thia-1-aza-bicyclo[3.2.0]hept-2-ene-2-carboxylic Acid Sodium Salt]",1300 nM,190 nM,1.2 nM,0.8 nM,–,–,–,–,–,–,–
"COc1ccc(COC(=O)C2=CS[C@@H]3[C@@H](Br)C(=O)N23)cc1 [Formula Q, reference compound]",–,–,–,–,100.0%,99.7%,95.3%,72.9%,69.8%,–,–
"(5R), (6Z)-6-(1-Methyl-2-thiazol-2-yl-1H-imidazol-4-ylmethylene)-7-oxo-4-thia-1-aza-bicyclo[3.2.0]hept-2-ene-2-carboxylic Acid Sodium Salt [Example 5]",68 nM,260 nM,5.2 nM,5.6 nM,–,–,–,–,–,–,–
"(5R), (6Z)-6-(3,1′-Dimethyl-3H,1′H-[2,4′]biimidazolyl-4-ylmethylene)-7-oxo-4-thia-1-aza-bicyclo[3.2.0]hept-2-ene-2-carboxylic Acid Sodium Salt [Example 2]",6 nM,250 nM,4.1 nM,2.1 nM,–,–,–,–,–,–,–
"O=C(OCc1ccc([N+](=O)[O-])cc1)C1=CS[C@@H]2[C@@H](Br)C(=O)N12 [Formula 16, 4-nitrobenzyl (5R,6S)-6-bromopenem-3-carboxylate]",–,–,–,–,100.0%,100.0%,100.0%,100.0%,98.7%,98.4%,–
O=C(OCc1ccc([N+](=O)[O-])cc1)C1=CS[C@@H]2[C@@H](Br)C(=O)N12 [Example 16],–,–,–,–,–,–,–,–,–,–,more stable than the intermediate Q
"O=C(O)C1=CS[C@@H]2/C(=C\c3c[nH]c(-c4nccs4)n3)C(=O)N12 [Example 4, (5R), (6Z)-6-(2-thiazol-2-yl-1H-imidazol-4-ylmethylene)-7-oxo-4-thia-1-aza-bicyclo[3.2.0]hept-2-ene-2-carboxylic Acid Sodium Salt]",5.8 nM,230 nM,0.4 nM,2.3 nM,–,–,–,–,–,–,–
"O=C(O)C1=CS[C@@H]2/C(=C\c3c[nH]c(-c4ccccc4)n3)C(=O)N12 [Example 6, (5R), (6Z)-6-(2-phenyl-1H-imidazol-4-ylmethylene)-7-oxo-4-thia-1-aza-bicyclo[3.2.0]hept-2-ene-2-carboxylic Acid]",11 nM,220 nM,5.6 nM,2.9 nM,–,–,–,–,–,–,–
